From publication PMC9611598, “Cyclodextrin Derivatives as Promising Solubilizers to Enhance the Biological Activity of Rosmarinic Acid” (Pharmaceutics, 2022)
≈ marks a conversion by molar mass, not a printed value.

Key:
[1] = target: AChE (acetylcholinesterase); experiment: Ellman assay, […] nm; assay type: biochemical; details: acetylthiocholine iodide, DTNB, Tris-HCl pH 8.0, room temperature; RA in DMSO, 2.5-25 mg/mL test solutions, 20 µL per well; value may refer to prepared solution, not final well concentration
tyrosinase = target: T1, tyrosinase; experiment: L-DOPA oxidation, […] nm; assay type: biochemical; details: 2.0 mM L-DOPA stock, phosphate buffer pH 6.8, room temperature; RA in 50% DMSO, 0.05-2.5 mg/mL test solutions, 25 µL per well; value may refer to prepared solution, not final well concentration
T1 construct: gene PPO3; mushroom tyrosinase is a guess from usual assay practice

## O=C(/C=C/c1ccc(O)c(O)c1)O[C@H](Cc1ccc(O)c(O)c1)C(=O)O [RA, rosmarinic acid]
[1]
  IC50: 8983 ± 162 µg/mL (≈ 24.9 mM)
tyrosinase
  IC50: 1591 ± 77 µg/mL (≈ 4.42 mM)
